Experimental findings from ChEMBL document CHEMBL1130862, “Synthesis and acetylcholinesterase inhibitory activity of (+/-)-14-fluorohuperzine A” (Bioorg Med Chem Lett, 1998) are described below.

This test addresses T1, Acetylcholinesterase (Rattus norvegicus, UniProt P37136).
T1 sequence (P37136 whole entry): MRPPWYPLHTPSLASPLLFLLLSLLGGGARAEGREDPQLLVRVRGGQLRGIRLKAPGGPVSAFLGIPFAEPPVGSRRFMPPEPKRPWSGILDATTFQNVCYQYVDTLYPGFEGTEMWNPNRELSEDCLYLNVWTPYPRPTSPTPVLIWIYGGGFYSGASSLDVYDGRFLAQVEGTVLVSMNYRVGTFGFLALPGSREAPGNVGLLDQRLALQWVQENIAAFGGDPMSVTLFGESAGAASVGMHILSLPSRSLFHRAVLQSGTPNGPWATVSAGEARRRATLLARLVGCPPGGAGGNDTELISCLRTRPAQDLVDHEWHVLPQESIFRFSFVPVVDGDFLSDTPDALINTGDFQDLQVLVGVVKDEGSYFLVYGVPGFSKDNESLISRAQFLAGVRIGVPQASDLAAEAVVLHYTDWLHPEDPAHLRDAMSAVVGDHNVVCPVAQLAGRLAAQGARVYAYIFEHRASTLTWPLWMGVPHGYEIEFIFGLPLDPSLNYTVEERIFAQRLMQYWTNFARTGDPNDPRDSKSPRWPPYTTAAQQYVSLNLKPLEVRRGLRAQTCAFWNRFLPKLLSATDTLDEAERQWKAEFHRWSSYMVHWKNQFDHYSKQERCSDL
Description: In vitro inhibitory activity against Acetylcholinesterase (AChE) using rat brain hippocampal crude homogenates. It is filed as tissue-based, Hippocampus.

Regarding `CC1=CC2Cc3nc(O)ccc3C(N)(C1)/C2=C/CF` (stereo unspecified), half-maximal inhibition (IC50) was put at 10 µM.
